Legend:
[1] = system: intracranial GL261 gliomas
U251 glioma cells = settings: 5 μM, U251 (not shown)
CCL2 = settings: GL261 cells, 48 h incubation
S100B promoter = assay: HTS cell-based S100B promoter-driven luciferase reporter assay; set-up: species or system human
[2] = system: tumor-associated myeloid-derived cells
K-Luc cells = settings: K-Luc cell line
in vivo = settings: C57BL/6, mouse, po, 30 mg/kg
S100B [3] = assay: S100B expression in GL261 cells; type: cell-based, mouse
[4] = system: tumor-associated leukocytes; settings: 30 mg/kg/14 days, LPS 0.5 μg/ml 24 h, q-PCR
S100B [5] = settings: cited from earlier work
[6] = contralateral brain tissue without tumor

Structure (SMILES): CNCC[C@H](Oc1cccc2ccccc12)c1cccs1 [Duloxetine]
- Tumor growth ([1]; i.c. GL261, 14 days treatment started a day after implantation): significantly decreased
- Animal survival ([1]; i.c. GL261, high doses (30 mg/kg/14 days), started a day after implantation): improved
- Cytotoxicity (U251 glioma cells): without causing cytotoxicity
- CCL2 expression in GL261 gliomas (immunohistochemistry) (S100B, RAGE, CCL2; 30 mg/kg, two weeks): decrease
- Total brain S100B, RAGE or CCL2 protein levels (S100B, RAGE, CCL2; GL261 tumor-bearing mice, 5 or 30 mg/kg/14 days, tumor and peritumoral tissue): did not significantly inhibit
- Serum S100B and soluble RAGE (sRAGE) levels (S100B, RAGE, CCL2; GL261 tumor-bearing mice, two-week treatment): Nor mouse serum S100B and soluble RAGE (sRAGE) levels changed
- S100B and RAGE in i.c. GL261 tumors (histochemistry) (S100B, RAGE, CCL2; two-week treatment, tumor cells): effectively inhibited
- Cell proliferation (GL261-Luc cells; GL261, Dul concentration < 10 μM): not significantly inhibited
- LD50 (GL261-Luc cells; GL261-Luc cells, 24 h incubation): 25.1 µM
- CCL2 expression (CCL2): inhibited
- S100B promoter activity (S100B promoter; 5 μM, luciferase measured 24 h after treatment): inhibited
- IC50 (S100B promoter; Homo sapiens, U-251): 10 µM
- Proportion of macrophages, monocytic myeloid-derived cells and neutrophils in GL261 gliomas ([2]; 30 mg/kg x 14 days, FACS): decreased
- Pathway Scores for innate and adaptive immunity processes in tumors ([2]; Nanostring, GL261 tumors (not in TME)): significantly higher
- Cell proliferation in vitro (K-Luc cells): modest inhibitory effect
- Overall tumor levels of S100B and RAGE (K-Luc gliomas; K-Luc tumor-bearing mice, daily for 14 days): did not significantly change
- Growth of K-Luc tumors (K-Luc gliomas; two-week treatment): did not significantly inhibit
- concentration at 0.5 h (in vivo; GL261 tumor): 48.8 µM
- concentration at 2 h (in vivo; GL261 tumor): 70.8 µM
- concentration at 6 h (in vivo; GL261 tumor): 24.9 µM
- concentration at 12 h (in vivo; GL261 tumor): 10 µM
- concentration at 0.5 h (in vivo; [6]): 36.3 µM
- concentration at 2 h (in vivo; [6]): 65.9 µM
- concentration at 6 h (in vivo; [6]): 24.2 µM
- concentration at 12 h (in vivo; [6]): 9.64 µM
- concentration at 0.5 h (in vivo; plasma): 3.04 µM
- concentration at 2 h (in vivo; plasma): 2.12 µM
- concentration at 6 h (in vivo; plasma): 1.28 µM
- concentration at 12 h (in vivo; plasma): 0.39 µM
- S100B expression (S100B [3]; GL261 cells, low concentrations, 24 h (qPCR), 48 h (Western, ELISA, immunostains)): inhibited
- Il-1β expression by tumor-associated leukocytes [4]: higher levels
- Il-6, Il-10 and Tgf-β expression by tumor-associated leukocytes [4]: lower levels

Structure (SMILES): CNCCC(Oc1ccc(C(F)(F)F)cc1)c1ccccc1 (centres unmarked) [fluoxetine]
- S100B expression in rat astrocytes in vivo (S100B [5]): stimulated

Structure (SMILES): NC[C@H](O)c1ccc(O)c(O)c1 [NE, norepinephrine]
- S100B promoter activity in U251-Luc (S100B promoter; NE added every 3 h, luciferase measured in 12 h): induced
- S100B expression in GL261 (S100B [3]; NE added every 3 h, 24 h, Western analysis): induced
